Tests used:
[1] = tested on: LucPpe2m146; experiment: Stability of reagent composition with LucPpe2m146 and detergent (RT, pH 7.0); format: biochemical, Photuris pennsylvanica
Text: (§1) The detergents used for inhibition of endogenous ATPase activity in a sample also affect activity of luciferase. […] It is ultimately the extended stability of a reagent composition, comprising an ATPase inhibitor and a luciferase enzyme, which provides a composition useful for measuring ATP, in a sample or samples, over an extended period of time.
(§2) In this experiment, the stability of a reagent composition comprising wild type LucPpy was compared to the stability of a reagent composition comprising LucPpe2m146 at about 23° C. (room temperature). The various reagent compositions had varying detergent concentrations.
(§3) Two solutions were created as listed below. One contained the luciferase, luciferin, MgSO4, and buffer (reagent composition). The other solution contained media plus ATP (media solution).
(§4) 50 μg/ml enzyme (LucPpy is Promega catalog #E170A)
(§5) Detergent (at various concentrations, see table below)
(§6) For each reagent composition, all ingredients except the luciferase enzyme were assembled; the enzyme was then added immediately before the first luminescence reading was taken. Immediately after addition of enzyme to each reagent composition and for various timepoints thereafter, 100 μl aliquots of the reagent composition were added to wells of a 96-well microtitre luminometer plate in triplicate. To these were added 100 μl Media Solution containing the ATP. Luminescence was then immediately read on a Dynex MLX microtitreplate luminometer, 0.5 second reads per well. The average relative light unit values as well as the reaction half lives are listed below in Table I and the percent of original luminescence remaining at each timepoint is listed in Table J below. The timepoint at the top of the column indicates the time at which the first rlu measurement for the samples in that column was read. […] Times listed in Table I are the same for Table J. The values for sulfobetaine and for CTAB were generated on different days, they are presented with the control values generated in the same experiment.

[2] = biological target: T1, LucPpy (Photinus pyralis, UniProt P08659); experiment: Stability of reagent composition with LucPpy and detergent (RT, pH 7.0); format: biochemical; details: for Average Relative Light Units / Percent of Luminescence Remaining: LucPpy
T1 construct: purchased Promega E170A
Text: as §1, §2, §3, §4, §5, §6

SMILES: CCCCCCCCCCCC[N+](C)(C)CCCS(=O)(=O)[O-] [Sulfobetaine 3-10, N-Dodecyl-N,N-dimethyl-3-ammonio-1-propanesulfonate]
- Average Relative Light Units ([1]; LucPpe2m146, 0.1%, 0.75 min (head r48)): 16648.3 rlu
- Percent of Luminescence Remaining ([1]; LucPpe2m146, 0.1%, 0.75 min (times of Table I r48)): 100.00%
- Average Relative Light Units ([1]; LucPpe2m146, 0.1%, 30 min (head r48)): 17003.0 rlu
- Percent of Luminescence Remaining ([1]; LucPpe2m146, 0.1%, 30 min (times of Table I r48)): 102.1%
- Average Relative Light Units ([1]; LucPpe2m146, 0.1%, 66 min (head r48)): 17849.8 rlu
- Percent of Luminescence Remaining ([1]; LucPpe2m146, 0.1%, 66 min (times of Table I r48)): 107.2%
- Average Relative Light Units ([1]; LucPpe2m146, 0.1%, 123 min (head r48)): 16610.13 rlu
- Percent of Luminescence Remaining ([1]; LucPpe2m146, 0.1%, 123 min (times of Table I r48)): 99.8%
- Average Relative Light Units ([1]; LucPpe2m146, 0.1%, 180 min (head r48)): 17115.63 rlu
- Percent of Luminescence Remaining ([1]; LucPpe2m146, 0.1%, 180 min (times of Table I r48)): 102.8%
- Average Relative Light Units ([1]; LucPpe2m146, 0.1%, 238 min (head r48)): 18131.37 rlu
- Percent of Luminescence Remaining ([1]; LucPpe2m146, 0.1%, 238 min (times of Table I r48)): 108.9%
- Average Relative Light Units ([1]; LucPpe2m146, 0.5%, 0.75 min (head r48)): 13447.0 rlu
- Percent of Luminescence Remaining ([1]; LucPpe2m146, 0.5%, 0.75 min (times of Table I r48)): 100.00%
- Average Relative Light Units ([1]; LucPpe2m146, 0.5%, 30 min (head r48)): 13597.97 rlu
- Percent of Luminescence Remaining ([1]; LucPpe2m146, 0.5%, 30 min (times of Table I r48)): 101.1%
- Average Relative Light Units ([1]; LucPpe2m146, 0.5%, 66 min (head r48)): 14186.93 rlu
- Percent of Luminescence Remaining ([1]; LucPpe2m146, 0.5%, 66 min (times of Table I r48)): 105.5%
- Average Relative Light Units ([1]; LucPpe2m146, 0.5%, 123 min (head r48)): 12982.20 rlu
- Percent of Luminescence Remaining ([1]; LucPpe2m146, 0.5%, 123 min (times of Table I r48)): 96.5%
- Average Relative Light Units ([1]; LucPpe2m146, 0.5%, 180 min (head r48)): 14348.90 rlu
- Percent of Luminescence Remaining ([1]; LucPpe2m146, 0.5%, 180 min (times of Table I r48)): 106.7%
- Average Relative Light Units ([1]; LucPpe2m146, 0.5%, 238 min (head r48)): 13958.2 rlu
- Percent of Luminescence Remaining ([1]; LucPpe2m146, 0.5%, 238 min (times of Table I r48)): 103.8%
- Average Relative Light Units ([1]; LucPpe2m146, 1.0%, 0.75 min (head r48)): 16897.5 rlu
- Percent of Luminescence Remaining ([1]; LucPpe2m146, 1.0%, 0.75 min (times of Table I r48)): 100.00%
- Average Relative Light Units ([1]; LucPpe2m146, 1.0%, 30 min (head r48)): 16754.97 rlu
- Percent of Luminescence Remaining ([1]; LucPpe2m146, 1.0%, 30 min (times of Table I r48)): 102.0%
- Average Relative Light Units ([1]; LucPpe2m146, 1.0%, 66 min (head r48)): 7036.0 rlu
- Percent of Luminescence Remaining ([1]; LucPpe2m146, 1.0%, 66 min (times of Table I r48)): 106.0%
- Average Relative Light Units ([1]; LucPpe2m146, 1.0%, 123 min (head r48)): 6653.67 rlu
- Percent of Luminescence Remaining ([1]; LucPpe2m146, 1.0%, 123 min (times of Table I r48)): 100.3%
- Average Relative Light Units ([1]; LucPpe2m146, 1.0%, 180 min (head r48)): 7358.44 rlu
- Percent of Luminescence Remaining ([1]; LucPpe2m146, 1.0%, 180 min (times of Table I r48)): 110.9%
- Average Relative Light Units ([1]; LucPpe2m146, 1.0%, 238 min (head r48)): 6948.05 rlu
- Percent of Luminescence Remaining ([1]; LucPpe2m146, 1.0%, 238 min (times of Table I r48)): 104.7%
- Half-life of Luminescence Activity ([2]; Common firefly luciferase (P. pyralis), conc. 0.500): no activity
- Average Relative Light Units ([2]; 0.1%, 0.75 min (head r12)): 3291.41 rlu
- Percent of Luminescence Remaining ([2]; 0.1%, 0.75 min (times of Table I r12)): 100.00%
- Average Relative Light Units ([2]; 0.1%, 7.5 min (head r12)): 3178.07 rlu
- Percent of Luminescence Remaining ([2]; 0.1%, 7.5 min (times of Table I r12)): 95.8%
- Average Relative Light Units ([2]; 0.1%, 20.5 min (head r12)): 3262.17 rlu
- Percent of Luminescence Remaining ([2]; 0.1%, 20.5 min (times of Table I r12)): 99.1%
- Average Relative Light Units ([2]; 0.1%, 59 min (head r12)): 3074.49 rlu
- Percent of Luminescence Remaining ([2]; 0.1%, 59 min (times of Table I r12)): 93.4%
- Average Relative Light Units ([2]; 0.1%, 90 min (head r12)): 3066.29 rlu
- Percent of Luminescence Remaining ([2]; 0.1%, 90 min (times of Table I r12)): 93. %
- Average Relative Light Units ([2]; 0.5%, 0.75 min (head r12)): 737.788 rlu
- Percent of Luminescence Remaining ([2]; 0.5%, 0.75 min (times of Table I r12)): 100.00%
- Average Relative Light Units ([2]; 0.5%, 7.5 min (head r12)): 0.084 rlu
- Average Relative Light Units ([2]; 0.5%, 20.5 min (head r12)): 0.037 rlu
- Average Relative Light Units ([2]; 1.0%, 0.75 min (head r12)): 0.024 rlu
- Average Relative Light Units ([2]; 1.0%, 7.5 min (head r12)): 0.000 rlu
